Measurements taken from patent publication US12729377B2, “RNAi agents and compositions for inhibiting expression of angiopoietin-like 3 (ANGPTL3), and methods of use” (Arrowhead Pharmaceuticals, Inc., priority 2017, dated 2026).
In the oligonucleotide strings, read from the 5' end, every base follows the letter of its sugar. An asterisk marks phosphorothioate; unmarked linkages are phosphodiester. Other units and linkages are bracketed, terminal groups are in braces. A string of capitals states the bases alone. {NAG37} = tridentate N-acetyl-galactosamine targeting ligand, structure (NAG37)s; [invAb] = inverted abasic unit; m = 2'-O-methyl; f = 2'-fluoro

Key:
ANGPTL3 gene [1] = test: Example 10: serum triglycerides in mice; assay type: in vivo; details: 0.5 mg/kg single SC injection day 1, female C57bl/6 mice, n=3, ratio to D5W control
Method: (§1) To assess the in vivo activity of further ANGPTL3 RNAi agents that are designed to target position 304 on the ANGPTL3 gene, six- to eight-week-old female C57bl/6 mice were used. Pre-dose serum samples were taken at day −1 after a four hour fast. At day 1, each mouse was given a single subcutaneous administration of 200 μl containing 0.5 mg/kg (mpk) of an ANGPTL3 RNAi agent in D5W (dextrose in 5% water), or control (D5W) with no RNAi agent, according to the dosing groups recited in Table 47.
(§2) Each of the RNAi agents included a modified sequence and an N-acetyl-galactosamine-containing targeting ligand conjugated to the 5′ terminal end of the sense strand. (See Tables 3, 4, and 5 for modified sequences and targeting ligand structures). As noted above, each of the ANGPTL3 RNAi agents dosed in this study included nucleotide sequences designed to target the ANGPTL3 gene at position 304. The injections were performed between the skin and muscle (i.e. subcutaneous injections) into the loose skin over the neck and shoulder area. Three (3) mice in each group were tested (n=3). Serum was collected on days 8, 15, 22, 29, and for some groups on day 36 (i.e., Groups 1, 2, and 9-13 only). Mice were fasted for four hours prior to each collection. ANGPTL3 protein levels in serum were measured by ELISA assay (R&D Systems), according to the manufacturer's recommendations. Triglycerides, total cholesterol, high-density lipoprotein (HDL), and low-density lipoprotein (LDL) in serum were measured on a Cobas® Integra 400 (Roche Diagnostics), according to the manufacturer's recommendations.
(§3) The ANGPTL3 protein levels, triglyceride levels, total cholesterol levels, HDL levels, and LDL levels for each animal were normalized. For normalization, the level of ANGPTL3 protein, triglyceride, HDL, and total cholesterol, respectively, for each animal at a time point, was divided by the pre-treatment level of expression in that animal (in this case at day −1) to determine the ratio of expression “normalized to pre-treatment.” Expression at a specific time point was then normalized to the D5W control group by dividing the “normalized to pre-treatment” ratio for an individual animal by the mean “normalized to pretreatment” ratio of all mice in the D5W control group.

ANGPTL3 gene [2] = test: Example 10: serum total cholesterol in mice; assay type: in vivo; details: 0.5 mg/kg single SC injection day 1, female C57bl/6 mice, n=3, ratio to D5W control
Method: as §1, §2, §3

ANGPTL3 gene [3] = test: Example 14: RNAi agent and statin, serum triglycerides in LDLR knockout mice; assay type: in vivo, LDLR KO mice
Excerpt: To evaluate the effect of co-administration of RNAi agents and statins in a disease model, LDLR KO mice were commercially obtained (The Jackson Laboratory). For three weeks prior to the onset of the study, forty-one (41) male 7 to 8 week old LDLR KO mice were placed on a high fat (“western”) diet (Teklad Custom Diets TD.88137), and remained on that diet throughout the duration of the study. Pre-dose serum samples were taken on study Day 1 after a four hour fast. The dosing regimen for the study is recited in the following Table 72:
• Mice were treated at 40 mg/kg for the first 11 days, then switched to 20 mg/kg thereafter.
The vehicle used for the oral gavage in the study was a 1:1 mixture of Ora-Plus®: Ora-Sweet® solution, which were acquired commercially. For the preparation of the atorvastatin oral gavage administrations, the respective desired dose of atorvastatin was first dissolved in sterile water (0.3 mL water per 1 mL of desired formulation) and vortexed until smooth, followed by the addition of a mixture of 1:1 Ora-Plus®: Ora-Sweet® solution (0.7 mL vehicle per 1 mL of desired formulation) and vortexed. On day 1 and for each day thereafter an oral gavage dose was administered for each of the Groups except for Group 2. On Day 23, Groups 1, 2, 3, and 4 received a single subcutaneous administration of 2.5 mg/kg dose ([…] solution) of an ANGPTL3 RNAi agent in D5W (dextrose in 5% water), or vehicle control (D5W) with no RNAi agent.
The RNAi agent tested (AD05488) included a modified sequence and an N-acetyl-galactosamine-containing targeting ligand conjugated to the 5′ terminal end of the sense strand. (See Tables 3, 4, and 5 for modified sequences and targeting ligand structures). The injections were performed between the skin and muscle (i.e. subcutaneous injections) into the loose skin over the neck and shoulder area. Serum was collected on days 8, 15, 22 (pre-RNAi agent injection), 29, 36, 43, and 50. LDLR KO mice were fasted for four hours prior to each collection.
ANGPTL3 protein levels in serum were measured by ELISA assay (R&D Systems), according to the manufacturer's recommendations. Among other biomarkers, triglycerides, total cholesterol, and low-density lipoprotein (LDL) in serum were measured on a Cobas® Integra 400 (Roche Diagnostics), according to the manufacturer's recommendations.
The ANGPTL3 protein levels, triglyceride levels, total cholesterol levels, HDL levels, and LDL levels for each animal were normalized. For normalization, respective levels of ANGPTL3 protein, TG, total cholesterol, or LDL for each animal at a time point was divided by the pre-treatment level of expression in that animal (in this case pre-dose levels on Day 1) to determine the ratio of expression “normalized to pre-treatment.” Data from the study set forth in this Example are shown in the following Tables 73-76: […]

AD05488: RNAi agent duplex: antisense AM07235-AS, sense AM07234-SS (antisense mU*fA*mC*fUmGfAmUfCmAfAmAfUmAfUmGfUmUfGmAfG*mC; sense {NAG37}*[invAb]*mGmCmUmCmAmAmCmAfUfAfUmUmUmGmAmUmCmAmGmUmA*[invAb])
Average Triglycerides Normalized to Pre-Treatmen and Control (ANGPTL3 gene [1]; Day 8): 0.646
Average Triglycerides Normalized to Pre-Treatmen and Control (ANGPTL3 gene [1]; Day 15): 0.669
Average Triglycerides Normalized to Pre-Treatmen and Control (ANGPTL3 gene [1]; Day 22): 0.723
Average Triglycerides Normalized to Pre-Treatmen and Control (ANGPTL3 gene [1]; Day 29): 0.739
Average Triglycerides Normalized to Pre-Treatmen and Control (ANGPTL3 gene [1]; Day 36): 0.843
Average Total Cholesterol Normalized to Pre-Treatment and Control (ANGPTL3 gene [2]; Day 8): 0.659
Average Total Cholesterol Normalized to Pre-Treatment and Control (ANGPTL3 gene [2]; Day 15): 0.808
Average Total Cholesterol Normalized to Pre-Treatment and Control (ANGPTL3 gene [2]; Day 22): 0.763
Average Total Cholesterol Normalized to Pre-Treatment and Control (ANGPTL3 gene [2]; Day 29): 0.743
Average Total Cholesterol Normalized to Pre-Treatment and Control (ANGPTL3 gene [2]; Day 36): 0.824
Avg TG normalized to pre-treatment (ANGPTL3 gene [3]; Group 2: no gavage, 2.5 mg/kg AD05488 SC on day 23, Day 8 (pre-RNAi agent injection)): 0.988
Avg TG normalized to pre-treatment (ANGPTL3 gene [3]; Group 2: no gavage, 2.5 mg/kg AD05488 SC on day 23, Day 15 (pre-RNAi agent injection)): 1.247
Avg TG normalized to pre-treatment (ANGPTL3 gene [3]; Group 2: no gavage, 2.5 mg/kg AD05488 SC on day 23, Day 22 (pre-RNAi agent injection)): 1.524
Avg TG normalized to pre-treatment (ANGPTL3 gene [3]; Group 2: no gavage, 2.5 mg/kg AD05488 SC on day 23, Day 29): 0.166
Avg TG normalized to pre-treatment (ANGPTL3 gene [3]; Group 2: no gavage, 2.5 mg/kg AD05488 SC on day 23, Day 36): 0.125
Avg TG normalized to pre-treatment (ANGPTL3 gene [3]; Group 2: no gavage, 2.5 mg/kg AD05488 SC on day 23, Day 43): 0.139
Avg TG normalized to pre-treatment (ANGPTL3 gene [3]; Group 2: no gavage, 2.5 mg/kg AD05488 SC on day 23, Day 50): 0.153
Avg TG normalized to pre-treatment (ANGPTL3 gene [3]; Group 3: 10 mg/kg daily oral gavage atorvastatin, 2.5 mg/kg AD05488 on day 23, Day 8 (pre-RNAi agent injection)): 0.613
Avg TG normalized to pre-treatment (ANGPTL3 gene [3]; Group 3: 10 mg/kg daily oral gavage atorvastatin, 2.5 mg/kg AD05488 on day 23, Day 15 (pre-RNAi agent injection)): 0.436
Avg TG normalized to pre-treatment (ANGPTL3 gene [3]; Group 3: 10 mg/kg daily oral gavage atorvastatin, 2.5 mg/kg AD05488 on day 23, Day 22 (pre-RNAi agent injection)): 0.614
Avg TG normalized to pre-treatment (ANGPTL3 gene [3]; Group 3: 10 mg/kg daily oral gavage atorvastatin, 2.5 mg/kg AD05488 on day 23, Day 29): 0.072
Avg TG normalized to pre-treatment (ANGPTL3 gene [3]; Group 3: 10 mg/kg daily oral gavage atorvastatin, 2.5 mg/kg AD05488 on day 23, Day 36): 0.058
Avg TG normalized to pre-treatment (ANGPTL3 gene [3]; Group 3: 10 mg/kg daily oral gavage atorvastatin, 2.5 mg/kg AD05488 on day 23, Day 43): 0.076
Avg TG normalized to pre-treatment (ANGPTL3 gene [3]; Group 3: 10 mg/kg daily oral gavage atorvastatin, 2.5 mg/kg AD05488 on day 23, Day 50): 0.065
Avg TG normalized to pre-treatment (ANGPTL3 gene [3]; Group 4: 20 mg/kg* daily oral gavage atorvastatin (40 mg/kg first 11 days), 2.5 mg/kg AD05488 on day 23, Day 8 (pre-RNAi agent injection)): 0.567
Avg TG normalized to pre-treatment (ANGPTL3 gene [3]; Group 4: 20 mg/kg* daily oral gavage atorvastatin (40 mg/kg first 11 days), 2.5 mg/kg AD05488 on day 23, Day 15 (pre-RNAi agent injection)): 0.526
Avg TG normalized to pre-treatment (ANGPTL3 gene [3]; Group 4: 20 mg/kg* daily oral gavage atorvastatin (40 mg/kg first 11 days), 2.5 mg/kg AD05488 on day 23, Day 22 (pre-RNAi agent injection)): 0.748
Avg TG normalized to pre-treatment (ANGPTL3 gene [3]; Group 4: 20 mg/kg* daily oral gavage atorvastatin (40 mg/kg first 11 days), 2.5 mg/kg AD05488 on day 23, Day 29): 0.071
Avg TG normalized to pre-treatment (ANGPTL3 gene [3]; Group 4: 20 mg/kg* daily oral gavage atorvastatin (40 mg/kg first 11 days), 2.5 mg/kg AD05488 on day 23, Day 36): 0.058
Avg TG normalized to pre-treatment (ANGPTL3 gene [3]; Group 4: 20 mg/kg* daily oral gavage atorvastatin (40 mg/kg first 11 days), 2.5 mg/kg AD05488 on day 23, Day 43): 0.089
Avg TG normalized to pre-treatment (ANGPTL3 gene [3]; Group 4: 20 mg/kg* daily oral gavage atorvastatin (40 mg/kg first 11 days), 2.5 mg/kg AD05488 on day 23, Day 50): 0.082
effects on lipid parameters (ANGPTL3 gene [3]; co-administration of atorvastatin (Groups 3 and 4), LDLR KO mice on high fat diet): additive effects
total reductions in triglycerides (ANGPTL3 gene [3]; co-administration of atorvastatin and RNAi agent (Groups 3 and 4), LDLR KO mice on high fat diet): ~ 95%
